Source: patent US20090156575A1, “NOVEL DIAZASPIROALKANES AND THEIR USE FOR TREATMENT OF CCR8 MEDIATED DISEASES” (priority 2005, published 2009)
Counter-ions that a name gives are not always drawn.

What follows are compounds tested against T1, human recombinant chemokine CCR8 receptor (Homo sapiens, UniProt P51685) (assay: CCL1 SPA binding assay). Conditions: IC50 (nM), membranes from CHO-K1 cells transfected with human CCR8; 125I CCL1 displacement, SPA beads.
T1 construct: purchased Euroscreen ES-136-M; host or cells: CHO-K1 cells (transfected), membrane preparation
Experimental: Membranes from CHO-K1 cells transfected with human recombinant chemokine CCR8 receptor (ES-136-M) were purchased from Euroscreen. Membrane preparations are stored at −70 C in 7.5 mM Tris-Cl pH 7.5, 12.5 mM MgCl2, 0.3 mM EDTA, 1 mM EGTA, 250 mM sucrose until used.
The CCR8 membranes (50.6 mg/ml) were preincubated with Wheat Germ Agglutinin SPA beads (4.05 mg/ml) in assay buffer (50 mM HEPES, 1 mM CaCl2×2H2O, 5 mM MgCl2×6H2O, 75 mM NaCl, 0.1% BSA) at pH=7.4 for 2 hours on ice. A […] dose-response curve (final concentrations 50 μM, 16.7 μM, 5.6 μM, 1.9 μM, 0.62 μM, 0.21 μM, 0.069 μM, 0.023 μM) was prepared by diluting compounds by serial dilution 1:3 in DMSO. In the screening plate (Polystyrene NBS plates, Costar Corning 3604) 1 μl from the DMSO solutions of compounds was transferred into each well. 1 μl of DMSO was added to the blank control wells and 1 μl unlabeled CCL1 (300 nM) was added to background control wells. 50 μl of the SPA bead-membrane mixture was added into each well. Finally, 50 μl ([…]) ^125I CCL1 (2000 Ci/mM) was added to each well. Plates were then incubated at RT with shaking (700 rpm) for 90 minutes followed by 30 minutes at RT without shaking. The plate was read in a Wallac MicroBeta counter for 2 minutes/well.

T1 sequence (P51685 whole entry): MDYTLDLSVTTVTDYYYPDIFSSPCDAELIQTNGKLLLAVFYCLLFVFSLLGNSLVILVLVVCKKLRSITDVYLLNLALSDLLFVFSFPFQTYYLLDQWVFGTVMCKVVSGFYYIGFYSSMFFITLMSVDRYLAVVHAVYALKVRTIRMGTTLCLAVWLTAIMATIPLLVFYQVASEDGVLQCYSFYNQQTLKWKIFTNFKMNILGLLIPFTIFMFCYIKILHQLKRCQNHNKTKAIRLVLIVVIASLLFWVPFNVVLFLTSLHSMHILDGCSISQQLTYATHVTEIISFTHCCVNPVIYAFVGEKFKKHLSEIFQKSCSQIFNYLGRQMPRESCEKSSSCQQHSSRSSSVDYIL

`CC1(C)Cc2c(CN3CCC4(CC3)CCN(C(=O)c3ccc(N)cn3)CC4)cccc2O1` [Example 86, 6-({9-[(2,2-dimethyl-2,3-dihydro-1-benzofuran-4-yl)methyl]-3,9-diazaspiro[5.5]undec-3-yl}carbonyl)pyridin-3-amine Trifluoroacetate] gave an IC50 of 8 nM.

Same assay, conditions: membranes from CHO-K1 cells transfected with human CCR8; 125I CCL1 displacement, SPA beads; read-out: IC50

First: CC1(C)Cc2c(CN3CCC4(CC3)CN(C(=O)c3ccnc(N)n3)C4)cccc2O1 [Example 157, 4-({7-[(2,2-dimethyl-2,3-dihydro-1-benzofuran-4-yl)methyl]-2,7-diazaspiro[3.5]non-2-yl}carbonyl)pyrimidin-2-amine]
Second: CC1(C)Cc2c(CN3CCC4(CC3)CCN(C(=O)c3ccnc(N)n3)CC4)cccc2O1 [Example 124, 4-({9-[(2,2-dimethyl-2,3-dihydro-1-benzofuran-4-yl)methyl]-3,9-diazaspiro[5.5]undec-3-yl}carbonyl)pyrimidin-2-amine]
The IC50 of the first is 4.2-fold higher: 50 nM for the first, 12 nM for the second.

Compared with `CC1(C)C=Cc2cccc(CN3CCC4(CC3)CN(C(=O)c3ccncc3)C4)c2O1` [Example 139, 7-[(2,2-dimethyl-2H-chromen-8-yl)methyl]-2-isonicotinoyl-2,7-diazaspiro[3.5]nonane], `CC1(C)Cc2cccc(CN3CCC4(CC3)CCN(C(=O)c3ccncc3)CC4)c2O1` [Example 1, 3-[(2,2-dimethyl-2,3-dihydro-1-benzofuran-7-yl)methyl]-9-isonicotinoyl-3,9-diazaspiro[5.5]undecane Trifluoroacetate] is 5.8-fold lower in IC50: 70 nM for the first, 12 nM for the second. The second is the more potent here.

`CC1(C)Cc2cccc(CN3CCC4(CC3)CCN(C(=O)c3ccc5cc[nH]c5c3)CC4)c2O1` [Example 68, 3-[(2,2-dimethyl-2,3-dihydro-1-benzofuran-7-yl)methyl]-9-(1H-indol-6-ylcarbonyl)-3,9-diazaspiro[5.5]undecane Acetate] and `CC1(C)Cc2cccc(CN3CCC4(CC3)CCN(C(=O)c3ccno3)CC4)c2O1` [Example 31, 3-[(2,2-dimethyl-2,3-dihydro-1-benzofuran-7-yl)methyl]-9-(isoxazol-5-ylcarbonyl)-3,9-diazaspiro[5.5]undecane Trifluoroacetate] are within 1.5-fold of each other in IC50: 8 nM for the first, 10 nM for the second.

Going from `CC1(C)COc2c(CN3CCC4(CC3)CCN(C(=O)c3ccc(N)cn3)CC4)cccc2O1` [Example 173, 6-({9-[(2,2-dimethyl-2,3-dihydro-1,4-benzodioxin-5-yl)methyl]-3,9-diazaspiro[5.5]undec-3-yl}carbonyl)pyridin-3-amine Trifluoroacetate] to `CC1(C)COc2c(CN3CCC4(CC3)CCN(C(=O)c3ccncc3)CC4)cccc2O1` [Example 110, 3-[(2,2-dimethyl-2,3-dihydro-1,4-benzodioxin-5-yl)methyl]-9-isonicotinoyl-3,9-diazaspiro[5.5]undecane Trifluoroacetate], the IC50 rises from 21 nM to 53 nM (2.5-fold).

Compared with `CC1(C)Cc2c(CN3CCC4(CC3)CCN(C(=O)c3ccncc3CC(N)=O)CC4)cccc2O1` [Example 159, 2-[4-({9-[(2,2-dimethyl-2,3-dihydro-1-benzofuran-4-yl)methyl]-3,9-diazaspiro[5.5]undec-3-yl}carbonyl)pyridin-3-yl]acetamide], `CC1(C)COc2cccc(CN3CCC4(CC3)CCN(C(=O)c3ccncc3CC(N)=O)CC4)c2O1` [Example 143, 2-[4-({9-[(3,3-dimethyl-2,3-dihydro-1,4-benzodioxin-5-yl)methyl]-3,9-diazaspiro[5.5]undec-3-yl}carbonyl)pyridin-3-yl]acetamide Ditrifluoroacetate] is 2.7-fold lower in IC50: 87 nM for the first, 32 nM for the second.

First: CC1(C)Cc2cccc(CN3CCC4(CC3)CCN(C(=O)c3ccccc3NC(=O)C3CCCO3)CC4)c2O1 (stereo not shown) [Example 49, N-[2-({9-[(2,2-dimethyl-2,3-dihydro-1-benzofuran-7-yl)methyl]-3,9-diazaspiro[5.5]undec-3-yl}carbonyl)phenyl]tetrahydrofuran-2-carboxamide]
Second: COC(=O)Cc1ccccc1C(=O)N1CCC2(CCN(Cc3cccc4c3OC(C)(C)C4)CC2)CC1 [Example 181, Methyl [2-({9-[(2,2-dimethyl-2,3-dihydro-1-benzofuran-7-yl)methyl]-3,9-diazaspiro[5.5]undec-3-yl}carbonyl)phenyl]acetate]
The IC50 of the first is 1.9-fold lower: 38 nM for the first, 72 nM for the second.

Going from `CC1(C)Oc2cccc(CN3CCC4(CC3)CCN(C(=O)c3ncccc3N)CC4)c2O1` [Example 92, 2-({9-[(2,2-dimethyl-1,3-benzodioxol-4-yl)methyl]-3,9-diazaspiro[5.5]undec-3-yl}carbonyl)pyridin-3-amine] to `CC1(C)Oc2cccc(CN3CCC4(CC3)CCN(C(=O)c3ccc(N)[nH]c3=O)CC4)c2O1` [Example 133, 6-amino-3-({9-[(2,2-dimethyl-1,3-benzodioxol-4-yl)methyl]-3,9-diazaspiro[5.5]undec-3-yl}carbonyl)pyridin-2(1H)-one], the IC50 rises from 23 nM to 84 nM (3.7-fold).

First: CC1(C)Cc2cccc(CN3CCC4(CC3)CCN(C(=O)c3cccc5c3NC(=O)C5=O)CC4)c2O1 [Example 63, 7-({9-[(2,2-dimethyl-2,3-dihydro-1-benzofuran-7-yl)methyl]-3,9-diazaspiro[5.5]undec-3-yl}carbonyl)-1H-indole-2,3-dione Trifluoroacetate]
Second: COC(=O)Cc1ccccc1C(=O)N1CCC2(CCN(Cc3cccc4c3OC(C)(C)C4)CC2)CC1 [Example 5, Methyl [2-({9-[(2,2-dimethyl-2,3-dihydro-1-benzofuran-7-yl)methyl]-3,9-diazaspiro[5.5]undec-3-yl}carbonyl)phenyl]acetate]
The IC50 of the first is 16-fold higher: 143 nM for the first, 9 nM for the second.

Going from `CC1(C)Cc2cccc(CN3CCC4(CC3)CCN(C(=O)c3ccccc3CC(=O)N3CCC[C@@H]3C(N)=O)CC4)c2O1` [Example 18, 1-{[2-({9-[(2,2-dimethyl-2,3-dihydro-1-benzofuran-7-yl)methyl]-3,9-diazaspiro[5.5]undec-3-yl}carbonyl)phenyl]acetyl}-D-prolinamide] to `CC1(C)Cc2cccc(CN3CCC4(CC3)CCN(C(=O)CCc3nc(-c5ccccn5)no3)CC4)c2O1` [Example 111, 3-[(2,2-dimethyl-2,3-dihydro-1-benzofuran-7-yl)methyl]-9-[3-(3-pyridin-2-yl-1,2,4-oxadiazol-5-yl)propanoyl]-3,9-diazaspiro[5.5]undecane], the IC50 rises from 57 nM to 104 nM (1.8-fold). The first is the more potent here.
